This note sets out measurements from PubChem BioAssay AID1259411 (Chemical Carcinogenesis Research Information System (CCRIS), 2018).

Active and inactive are the calls of the source. No rule for the calls is given here.

This series has as its system rodent carcinogenicity bioassays, tumor incidence. Description: CCRIS carcinogenicity studies. An outline of the steps: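 NCI-built, expert-reviewed records of carcinogenicity and related test outcomes (mutagenicity, tumor promotion/inhibition) compiled from published and report sources, historical span 1985-2011, not updated.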

Take `O=C(OC[C@@H]1O[C@H](OC(=O)c2cc(O)c(O)c(OC(=O)c3cc(O)c(O)c(O)c3)c2)[C@@H](OC(=O)c2cc(O)c(O)c(OC(=O)c3cc(O)c(O)c(O)c3)c2)[C@H](OC(=O)c2cc(O)c(O)c(OC(=O)c3cc(O)c(O)c(O)c3)c2)[C@H]1OC(=O)c1cc(O)c(O)c(OC(=O)c2cc(O)c(O)c(O)c2)c1)c1cc(O)c(O)c(OC(=O)c2cc(O)c(O)c(O)c2)c1`: the carcinogen call is “active; positive” (Species: MOUSE, Route: SUBCUTANEOUS, Tumor Site: Type of Lesion: LIVER, INJECTION SITE); “active; positive” (Species: RAT, Route: SUBCUTANEOUS, Tumor Site: Type of Lesion: LIVER); “inactive; negative” (Species: RAT, Strain/Sex: F344/FEMALE, Route: ORAL, Dose: 0, 0.25, 0.5% IN DISTILLED WATER AS DRINKING WATER FOR 2 YR (STUDY DURATION: 114 WK), Dose: 0, 0.25, 0.5% IN DISTILLED WATER AS DRINKING WATER FOR 2 YR (STUDY DURATION: 114 WK)); “inactive; negative” (Species: RAT, Strain/Sex: F344/MALE, Route: ORAL, Dose: 0, 0.25, 0.5% IN DISTILLED WATER AS DRINKING WATER FOR 2 YR (STUDY DURATION: 114 WK), Dose: 0, 0.25, 0.5% IN DISTILLED WATER AS DRINKING WATER FOR 2 YR (STUDY DURATION: 114 WK)).

Take `CN(N=O)C(=O)NCCC[C@H](N)C(=O)O`: the carcinogen call runs as follows: (Species: HAMSTER, Strain/Sex: SYRIAN/FEMALE, Route: INTRAPERITONEAL, Dose: 218, 654 MG/KG 1/WK FOR 12 WK (LOW DOSE) OR 6 WK (HIGH DOSE), Tumor Site: Type of Lesion: PANCREAS: CARCINOMA, CARCINOMA (IN SITU), PERITONEAL CAVITY: MESOTHELIOMA;MAMMARY GLAND: CARCINOMA, STOMACH: PAPILLOMA,, Tumor Site: Type of Lesion: PANCREAS: CARCINOMA, CARCINOMA (IN SITU), PERITONEAL CAVITY: MESOTHELIOMA;MAMMARY GLAND: CARCINOMA, STOMACH: PAPILLOMA) “active; positive”; (Species: HAMSTER, Strain/Sex: SYRIAN/MALE, Route: INTRAPERITONEAL, Dose: 218, 654 MG/KG 1/WK FOR 12 WK (LOW DOSE) OR 6 WK (HIGH DOSE), Tumor Site: Type of Lesion: PANCREAS: CARCINOMA, CARCINOMA (IN SITU), STOMACH: PAPILLOMA) “active; positive”.

Regarding `C=CC(O)c1ccc(OC)cc1` (stereo unspecified), the carcinogen call (Species: MOUSE, Strain/Sex: CD-1/MALE, Route: SUBCUTANEOUS, Dose: 0, 0.17 UMOL IN 0.025 ML TRIOCTANOIN WITHIN 24 H AFTER BIRTH THEN 0, 0.47 UMOL IN 0.05 ML TRIOCTANOIN ON D 8, 0, 0.95 UM, Dose: 0, 0.17 UMOL IN 0.025 ML TRIOCTANOIN WITHIN 24 H AFTER BIRTH THEN 0, 0.47 UMOL IN 0.05 ML TRIOCTANOIN ON D 8, 0, 0.95 µM, Tumor Site: Type of Lesion: LIVER: HEPATOCELLULAR CARCINOMA) was “active; positive”.

Consider `NC(N)=S`, for which the carcinogen call (Species: RAT, Route: ORAL, Tumor Site: Type of Lesion: LIVER, THYROID GLAND, EAR (ZYMBAL GLAND), Tumor Site: Type of Lesion: LIVER, THYROID GLAND, EAR (ZYMBAL GLAND)) was “active; positive”.

Take `COP(=O)(OC)OC=C(Cl)Cl`: the carcinogen call is, setting by setting: (Species: MOUSE, Strain/Sex: B6C3F1/FEMALE, Route: GAVAGE, Dose: 0, 20, 40 MG/KG IN CORN OIL 5 D/WK FOR 103 WK (STUDY DURATION: 104 WK), Dose: 0, 20, 40 MG/KG IN CORN OIL 5 D/WK FOR 103 WK (STUDY DURATION: 104 WK), Tumor Site: Type of Lesion: FORESTOMACH: CARCINOMA, SQUAMOUS CELL PAPILLOMA) “active; positive”; (Species: MOUSE, Strain/Sex: B6C3F1/FEMALE, Route: GAVAGE, Dose: 0, 20, 40 MG/KG IN CORN OIL 5 D/WK FOR 103 WK (STUDY DURATION: 105 WK), Dose: 0, 20, 40 MG/KG IN CORN OIL 5 D/WK FOR 103 WK (STUDY DURATION: 105 WK), Tumor Site: Type of Lesion: FORESTOMACH: SQUAMOUS PAPILLOMA, SQUAMOUS CELL PAPILLOMA OR CARCINOMA) “active; positive”; (Species: MOUSE, Strain/Sex: B6C3F1/FEMALE, Route: ORAL, Dose: 0, 317, 635 PPM IN DIET, TWA, Dose: 0, 317, 635 PPM IN DIET, TWA) “inactive; negative”; (Species: MOUSE, Strain/Sex: B6C3F1/MALE, Route: GAVAGE, Dose: 0, 10, 20 MG/KG IN CORN OIL 5 D/WK FOR 103 WK (STUDY DURATION: 104 WK), Dose: 0, 10, 20 MG/KG IN CORN OIL 5 D/WK FOR 103 WK (STUDY DURATION: 104 WK), Tumor Site: Type of Lesion: FORESTOMACH: SQUAMOUS CELL PAPILLOMA) “active; positive”; (Species: MOUSE, Strain/Sex: B6C3F1/MALE, Route: GAVAGE, Dose: 0, 10, 20 MG/KG IN CORN OIL 5 D/WK FOR 103 WK (STUDY DURATION: 105 WK), Dose: 0, 10, 20 MG/KG IN CORN OIL 5 D/WK FOR 103 WK (STUDY DURATION: 105 WK), Tumor Site: Type of Lesion: FORESTOMACH: SQUAMOUS PAPILLOMA) “active; positive”; (Species: MOUSE, Strain/Sex: B6C3F1/MALE, Route: ORAL, Dose: 0, 317, 635 PPM IN DIET, TWA, Dose: 0, 317, 635 PPM IN DIET, TWA) “inactive; negative”. Further, the carcinogen call by setting is: (Species: RAT, Strain/Sex: BDIX/BLN/FEMALE, Route: INTRAGASTRIC, Dose: 0, 0.1 MG IN 0.2 ML WATER 2/WK FOR 60 WK (STUDY DURATION: 111 WK)) “inactive; negative”; (Species: RAT, Strain/Sex: BDIX/BLN/FEMALE, Route: INTRAGASTRIC, Dose: 0, 0.1 MG IN 0.2 ML WATER 3/WK FOR 60 WK (STUDY DURATION: 111 WK)) “inactive; negative”; (Species: RAT, Strain/Sex: BDIX/BLN/MALE, Route: INTRAGASTRIC, Dose: 0, 0.1 MG IN 0.2 ML WATER 2/WK FOR 60 WK (STUDY DURATION: 111 WK)) “inactive; negative”; (Species: RAT, Strain/Sex: BDIX/BLN/MALE, Route: INTRAGASTRIC, Dose: 0, 0.1 MG IN 0.2 ML WATER 3/WK FOR 60 WK (STUDY DURATION: 111 WK)) “inactive; negative”; (Species: RAT, Strain/Sex: F344/FEMALE, Route: GAVAGE, Dose: 0, 4, 8 MG/KG IN CORN OIL 5 D/WK FOR 103 WK (STUDY DURATION: 104 WK), Dose: 0, 4, 8 MG/KG IN CORN OIL 5 D/WK FOR 103 WK (STUDY DURATION: 104 WK), Tumor Site: Type of Lesion: PANCREAS: ACINAR CELL ADENOMA, HEMATOPOIETIC SYSTEM: MONONUCLEAR CELL LEUKEMIA, MAMMARY GLAND: FIBROADENOMA, CARCINOMA, Tumor Site: Type of Lesion: PANCREAS: ACINAR CELL ADENOMA, HEMATOPOIETIC SYSTEM: MONONUCLEAR CELL LEUKEMIA, MAMMARY GLAND: FIBROADENOMA, CARCINOMA) “active; positive”; (Species: RAT, Strain/Sex: F344/FEMALE, Route: GAVAGE, Dose: 0, 4, 8 MG/KG IN CORN OIL 5 D/WK FOR 103 WK (STUDY DURATION: 105 WK), Dose: 0, 4, 8 MG/KG IN CORN OIL 5 D/WK FOR 103 WK (STUDY DURATION: 105 WK), Tumor Site: Type of Lesion: PANCREAS: ADENOMA, MAMMARY GLAND: FIBROADENOMA) “equivocal”. For the same molecule, the carcinogen call was “active; positive” (Species: RAT, Strain/Sex: F344/MALE, Route: GAVAGE, Dose: 0, 4, 8 MG/KG IN CORN OIL 5 D/WK FOR 103 WK (STUDY DURATION: 104 WK), Dose: 0, 4, 8 MG/KG IN CORN OIL 5 D/WK FOR 103 WK (STUDY DURATION: 104 WK), Tumor Site: Type of Lesion: PANCREAS: ACINAR CELL ADENOMA, HEMATOPOIETIC SYSTEM: MONONUCLEAR CELL LEUKEMIA); “active; positive” (Species: RAT, Strain/Sex: F344/MALE, Route: GAVAGE, Dose: 0, 4, 8 MG/KG IN CORN OIL 5 D/WK FOR 103 WK (STUDY DURATION: 105 WK), Dose: 0, 4, 8 MG/KG IN CORN OIL 5 D/WK FOR 103 WK (STUDY DURATION: 105 WK), Tumor Site: Type of Lesion: PANCREAS: ADENOMA, HEMATOPOIETIC SYSTEM: MONONUCLEAR CELL LEUKEMIA); “inactive; negative” (Species: RAT, Strain/Sex: OSBORNE-MENDEL/FEMALE, Route: ORAL, Dose: 0, 318, 635 PPM IN DIET, TWA, Dose: 0, 318, 635 PPM IN DIET, TWA); “inactive; negative” (Species: RAT, Strain/Sex: OSBORNE-MENDEL/MALE, Route: ORAL, Dose: 0, 150, 326 PPM IN DIET, TWA, Dose: 0, 150, 326 PPM IN DIET, TWA).

As for `Cc1c2ccccc2c(C)c2c3c(ccc12)[C@H](O)[C@@H](O)C=C3`, the carcinogen call runs as follows: (Species: RAT, Strain/Sex: SPRAGUE-DAWLEY/FEMALE (8/GROUP), Route: SUBCUTANEOUS, Dose: 0.1 UMOL 3X A WK FOR 20 DOSES (STUDY DURATION: 38 WK), Tumor Site: Type of Lesion: MAMMARY: ADENOCARCINOMA) “active; positive (100%); no tumors at injection site”; (Species: RAT, Strain/Sex: SPRAGUE-DAWLEY/FEMALE (8/GROUP), Route: SUBCUTANEOUS, Dose: 0.2 UMOL 3X A WK FOR 20 DOSES (STUDY DURATION: 30 WK), Tumor Site: Type of Lesion: MAMMARY: ADENOCARCINOMA) “active; positive (100%); no tumors at injection site”.
